Data reported in article PMC11714696 (2024).

What was measured:
[1] = system: poly(A·U) (RNA, polymer) A/U; assay: absorption titration, Benesi-Hildebrand; conditions: Na+ (25 mM NaCl, 10 mM sodium cacodylate); 10 mM cacodylate pH 7.0, 0.1 mM Na2EDTA; RNA concentration by ε260 14280; per base
[2] = system: poly(I·C) (RNA, polymer, inosine (hypoxanthine base) at every position of strand 1 (written as G)) G/C; assay: fluorescence titration, Benesi-Hildebrand; conditions: Na+ (25 mM NaCl, 10 mM sodium cacodylate); 10 mM cacodylate pH 7.0, 0.1 mM Na2EDTA; RNA concentration by ε260 10000; per base
[3] = system: poly(I·C) (RNA, polymer, inosine (hypoxanthine base) at every position of strand 1 (written as G)) G/C; assay: absorption titration, Benesi-Hildebrand; conditions: Na+ (25 mM NaCl, 10 mM sodium cacodylate); 10 mM cacodylate pH 7.0, 0.1 mM Na2EDTA; RNA concentration by ε260 10000; per base
[4] = system: poly(A·U) (RNA, polymer) A/U; assay: UV melting at 260 nm; conditions: Na+ (25 mM NaCl, 10 mM sodium cacodylate); 10 mM cacodylate pH 7.0; 10 and 15 μM Nile blue; free Tm about 46.0 °C
[5] = system: poly(A·U) (RNA, polymer) A/U; assay: fluorescence titration, Benesi-Hildebrand; conditions: Na+ (25 mM NaCl, 10 mM sodium cacodylate); 10 mM cacodylate pH 7.0, 0.1 mM Na2EDTA; RNA concentration by ε260 14280; per base
[6] = system: poly(I·C) (RNA, polymer, inosine (hypoxanthine base) at every position of strand 1 (written as G)) G/C; assay: UV melting at 260 nm; conditions: Na+ (25 mM NaCl, 10 mM sodium cacodylate); 10 mM cacodylate pH 7.0; 10 and 15 μM Nile blue; free Tm about 48.0 °C

CC[N+](CC)=c1ccc2nc3c(cc(N)c4ccccc43)oc-2c1
KBH [1]: 586000 M⁻¹ | KBH [2]: 113000 M⁻¹ | KBH [3]: 116000 M⁻¹ | binding [4]: yes | KBH [5]: 211000 M⁻¹ | binding [6]: yes
